Assay results as given in patent US10093642B2, “Multitarget hedgehog pathway inhibitors and uses thereof” (UNIVERSITA' DEGLI STUDI DI SIENA, priority 2013, dated 2018).

How the values were obtained:
[1] = test system: ASZ001 BCC allografts; test: ASZ001 BCC allograft in NOD/SCID mice; format: in vivo; settings: 100 μmol/Kg, 18 days
Excerpt: FIG. 18. Glabrescione B inhibits Gli1-dependent BCC tumor growth in vivo. (ASZ001 BCC allografts). (A) Change of tumor volume during Glabrescione B (GlaB) or vehicle (CTR) treatment period (18 days). […] (C) qRT-PCR of Gli1 and Ptch1 mRNA. Shown is the mean±SD of tumor (n=6) for each treatment. *P<0.05 vs CTR.
Therefore, to verify the Glabrescione B efficacy to inhibit Hh-dependent tumor cell growth in vivo, we turned to an allograft model of MB cells. Spontaneous Medulloblastomas from Ptch1^+/− mice were isolated, minced, pipetted to obtain a single-cell suspension and grafted s.c. at the posterior flank of female BALB/c nude mice (nu/nu) (Charles River Laboratories, Lecco, Italy). Tumors were grown until a median size of ˜100 mm^3. Animals were randomly divided into two groups (n=6) and treated with solvent only (2-hydroxypropyl-β-cyclodextrin:ethanol, 3:1) or Glabrescione B in solvent (75 μmol/Kg) for 18 days (2-hydroxypropyl-β-cyclodextrin was purchased from Sigma Aldrich, St. Louis, Mo., USA). 2×10^6 ASZ001 BCC cells were resuspended in an equal volume of 154CF medium and Matrigel (BD Biosciences, Heidelberg, Germany) and injected s.c. at the posterior flank of female NOD/SCID mice (Charles River Laboratories, Lecco, Italy), as previously described (Eberl et al, 2012). […] Tumor volumes change was calculated by the formula length×width×0.5×(length+width) (Lauth et al, 2007). […]

[2] = test system: MEF-Ptch−/− cells; test: Gli1 mRNA (quantitative RT-PCR) and protein (western blot) in MEF-Ptch−/− cells; format: cell-based, mouse; settings: different concentrations, 48 h
Description: FIG. 8. […] (A) Gli1 mRNA levels were determined by quantitative RT-PCR, normalizing to HPRT (Hypoxanthine-guanine phosphoribosyl transferase) expression. Error bars indicate SD.
To analyze the antagonist properties of Glabrescione B under more physiological conditions, the inventors used MEF-Ptch^−/− cells, embryo fibroblasts derived from Ptch^−/− mouse, in which the activation of Hh signaling is consequence of Ptch1 deletion. Since Patched acts as upstream repressor of SMO, inhibition of the Hedgehog pathway from Patched is prevented and the Hedgehog pathway is constitutively activated in this cell lines, which turned out to be a reliable cellular model for studying the effect of Hedgehog inhibitors. […]
In order to determine whether Glabrescione B regulates cells with a constitutive Hh pathway activation, the MEF-Ptch^−/− cell line (a kind gift by M. Scott, Stanford University, CA, in which the activation of Hh signaling is consequence of Ptch1 deletion, Goodrich, L. V. et al, 1997) was treated with Glabrescione B at different concentrations and the effect on expression of Hh/Gli1 pathway was determined by quantitative RT-PCR and western blot analysis. […] Quantitative PCR (QPCR) analysis of Gli1 mRNA expression was performed on each cDNA sample using the ABI Prism 7900 Sequence Detection System employing Assay-on-Demand Reagents (Life Technologies). […]

With `COc1cc(OC)c2c(=O)c(-c3ccc(OCC=C(C)C)c(OCC=C(C)C)c3)coc2c1` [Glabrescione B, 3-(3′,4′-bis(3-methylbut-2-enyloxy)phenyl)-5,7-dimethoxy-4H-chromen-4-one] as the compound, how does the “Gli1 mRNA levels in tumors” value [1] read?
The value was “significant reduction”.

And the tumor growth [1]?
The tumor growth was “significant reduction of tumor growth”.

What about the “Gli1 mRNA and protein levels” value [2] of the same compound?
The value was “strongly reduced mRNA and protein levels of Gli1”.
